Values joined by “and” are separate entries in the source; they are usually repeats but may differ in a detail not shown here. Equal entries are not always repeated.
molecular target: recombinant human MEK 1 (MAPKK) and recombinant human ERK2 (MAPK); assay: Mitogen Activated Protein Kinase (MAPK) assay, two component coupled MEK 1 / ERK2; type: biochemical; conditions: separate entries for the same compound = evaluated more than one time;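 note: MEK 1-activated ERK2 phosphorylates MBP or Myc peptide with 33P-ATP, filter capture and scintillation counting, inhibitor preincubated with ERK2 30 min at 0 °C, inhibition relative to uninhibited control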

Which IC50 does the source give for `COCCOc1ccc2ncc(C#N)c(Nc3cccc(N(C)C)c3)c2c1OCCOC` [Example 117] here?
The IC50 was 40 µM and 28 µM.

Which IC50 does the source give for `COc1cc2ncc(C#N)c(Nc3ccc(F)c(Cl)c3)c2cc1OCCCN1CCOCC1` [Example 125] here?
Its IC50 is greater than 100 µM.

Which IC50 does the source give for `COc1cc2ncc(C#N)c(Nc3cccc(Br)c3)c2cc1OCCCN1CCOCC1` [Example 126] here?
Its IC50 is greater than 100 µM.

`N#Cc1cnc2ccc([N+](=O)[O-])cc2c1Nc1cccc(I)c1` [Example 131, 4-[(3-Iodophenyl)amino]-6-nitro-3-quinolinecarbonitrile] was tested. Which IC50 did it give?
Its IC50 is greater than 100 µM.

With `Cc1cccc(Nc2c(C#N)cnc3ccc([N+](=O)[O-])cc23)c1` [Example 134] as the molecule, how does the IC50 read?
The IC50 was > 100 µM and 80 µM.

With `N#Cc1cnc2ccc(N)cc2c1Nc1cccc(Cl)c1` [Example 136, 6-Amino-4-[(3-chlorophenyl)amino]-3-quinolinecarbonitrile] as the molecule, how does the IC50 read?
The IC50 was 70 µM and > 100 µM.

For `COc1cccc(Nc2c(C#N)cnc3ccc(N)cc23)c1` [Example 141, 6-Amino-4-[(3-methoxyphenyl)amino]-3-quinolinecarbonitrile], which IC50 is on record?
The IC50 was 35 µM.

`N#Cc1cnc2ccc(N)cc2c1Nc1ccc(F)c(Cl)c1` [Example 149, 6-Amino-4-[(3-chloro-4-fluorophenyl)amino]-3-quinolinecarbonitrile] was tested. Which IC50 did it give?
The IC50 was 2 µM and 4 µM.

For `N#Cc1cnc2ccc([N+](=O)[O-])cc2c1Nc1ccc(F)c(Cl)c1` [Example 150, 4-[(3-chloro-4-fluorophenyl)amino]-6-nitro-3-quinolinecarbonitrile], which IC50 is on record?
Its IC50 is greater than 100 µM.

With `N#Cc1cnc2ccc([N+](=O)[O-])cc2c1Nc1ccc(Br)cc1` [Example 153, 4-[(4-Bromophenyl)amino]-6-nitro-3-quinolinecarbonitrile] as the molecule, how does the IC50 read?
The IC50 was greater than 100 µM.

With `N#Cc1cnc2ccc([N+](=O)[O-])cc2c1Nc1ccc(Sc2ccccc2)c(Cl)c1` [Example 159, 4-[(3-Chloro-4-thiophenoxyphenyl)amino]-6-nitro-3-quinolinecarbonitrile] as the molecule, how does the IC50 read?
The IC50 was greater than 100 µM.

How did the IC50 turn out when `CN(C)CC#CC(=O)Nc1ccc2ncc(C#N)c(Nc3ccc(F)c(Br)c3)c2c1` [Example 197, N-[4-[(3-Bromo-4-fluorophenyl)amino]-3-cyano-6-quinolinyl]-4-dimethylamino-2-butynamide] was run?
Its IC50 is 35 µM.

`COc1cc2ncc(C#N)c(Nc3ccc(C)c(Br)c3)c2cc1OC` [Example 248, 4-(3-Bromo-4-methyl-phenylamino)-6.7-dimethoxy-quinoline-3-carbonitrile] was tested. Which IC50 did it give?
The IC50 was 8 µM.

Which IC50 does the source give for `CCOc1cc2ncc(C#N)c(Nc3cccc(C(C)=O)c3)c2cc1OCC` [Example 257, 4-(3-acetylphenylamino)-6,7-diethoxy-3-quinolinecarbonitrile] here?
The IC50 was greater than 100 µM.

For `COc1cc2ncc(C#N)c(Nc3cccc(NC(C)=O)c3)c2cc1OC` [Example 265, 4-(3-Acetamidophenylamino)-6,7-dimethoxy-3-quinolinecarbonitrile], which IC50 is on record?
The IC50 was 20 µM.

Which IC50 does the source give for `CC#CC(=O)Nc1cccc(Nc2c(C#N)cnc3cc(OC)c(OC)cc23)c1` [Example 266, 4-[3-(2-Butynoylamino)phenylamino]1-6,7-dimethoxy-3-quinolinecarbonitrile] here?
Its IC50 is greater than 100 µM.

With `COc1cc2ncc(C#N)c(Nc3cccc(CCl)c3)c2cc1OC` [Example 268, 4-[3-(Chloromethyl)phenylamino]-6,7-dimethoxy-3-quinolinecarbonitrile] as the molecule, how does the IC50 read?
Its IC50 is 15 µM.

Which IC50 does the source give for `COc1cc2ncc(C#N)c(Nc3cc(C)c(O)c(C)c3)c2cc1OC` [Example 288, 4-(4-Hydroxy-3,5-dimethyl-phenylamino)-6,7-dimethoxy-quinoline-3-carbinitile] here?
The IC50 was 16 µM.

With `COc1cc2ncc(C#N)c(Nc3cccnc3)c2cc1OC` [Example 293, 6,7-Dimethoxy-4-(pyridin-3-ylamino)-quinoline-3-carbonitrile] as the molecule, how does the IC50 read?
Its IC50 is greater than 100 µM.

With `COc1cc2ncc(C#N)c(Nc3ccc(O)cc3Cl)c2cc1OC` [Example 296, 4-(2-Chloro-4-hydroxy-phenylamino)-6,7-dimethoxy-quinoline-3-carbonitrile] as the molecule, how does the IC50 read?
Its IC50 is 3.5 µM.

With `COc1cc2ncc(C#N)c(Nc3ccc(SC)cc3)c2cc1OC` [Example 298, 6.7-Dimethoxy-4-(4-methylsulfanyl-phenylamino)-quinoline-3-carbonitrile] as the molecule, how does the IC50 read?
Its IC50 is less than 1 µM.

How did the IC50 turn out when `COc1cc2ncc(C#N)c(Nc3ccc(CCO)cc3)c2cc1OC` [Example 299, 4-[4-(2-Hydroxy-ethyl)-phenylamino]-6,7-dimethoxy-quinoline-3-carbonitrile] was run?
The IC50 was greater than 100 µM.

How did the IC50 turn out when `COc1cc2ncc(C#N)c(Nc3ccc(O)cc3O)c2cc1OC` [Example 300, 4-(2,4-Dihydroxy-phenylamino)-6,7-dimethoxy-quinoline-3-carbonitrile] was run?
Its IC50 is 20 µM.

With `COc1cc2ncc(C#N)c(Nc3ccccc3CCO)c2cc1OC` [Example 301, 4-[2-(2-Hydroxy-ethyl)-phenylamino]-6,7-dimethoxy-quinoline-3-carbonitrile] as the molecule, how does the IC50 read?
Its IC50 is 12 µM.

`CCCOc1cc2ncc(C#N)c(Nc3cccc(Br)c3)c2cc1OCCC` [Example 303, 4-(3-Bromophenylamino)-6.7-di-n-propoxy-3-quinolinecarbonitrile] was tested. Which IC50 did it give?
The IC50 was greater than 100 µM.

`CCCCOc1cc2ncc(C#N)c(Nc3cccc(Br)c3)c2cc1OCCCC` [Example 305, 4-(3-Bromophenylamino)-6,7-di-n-butoxy-3-quinolinecarbonitrile] was tested. Which IC50 did it give?
Its IC50 is greater than 100 µM.

With `COc1cc2ncc(C#N)c(Nc3cc(O)c(Cl)cc3F)c2cc1OCCCN1CCOCC1` [Example 323, 4-(4-Chloro-2-fluoro-5-hydroxy-phenylamino)-7-methoxy-6-(3-morpholin-4-yl)-propoxyl-quinoline-3-carbonitrile] as the molecule, how does the IC50 read?
The IC50 was 15 µM.

For `COCc1cc2ncc(C#N)c(Nc3cccc(Br)c3)c2cc1COC` [Example 325, 4-(3-Bromophenylamino)-6,7-di-methoxymethyl-3-quinolinecarbonitrile], which IC50 is on record?
Its IC50 is greater than 100 µM.

For `COc1cc2ncc(C#N)c(Nc3cccc(CO)c3C)c2cc1OC` [Example 333, 4-(3-Hydroxymethyl-2-methylphenylamino)-6,7-dimethoxyquinoline-3-carbonitrile], which IC50 is on record?
Its IC50 is 10 µM.

With `COc1cc2ncc(C#N)c(Nc3cccc(O)c3)c2cc1OC` [Example 339, 4-(3-Hydroxy-phenylamino)-6,7-dimethoxy-quinoline-3-carbonitrile] as the molecule, how does the IC50 read?
Its IC50 is 65 µM and 50 µM.

Which IC50 does the source give for `COc1cc2ncc(C#N)c(Nc3ccc(C)cc3)c2cc1OC` [Example 340, 4-(4-methyl-phenylamino)-6,7-dimethoxy-quinoline-3-carbonitrile] here?
The IC50 was greater than 100 µM.

Which IC50 does the source give for `COc1cc([N+](=O)[O-])cc2c(Nc3ccc(C)c(O)c3)c(C#N)cnc12` [Example 341, 4-(3-Hydroxy-4-methyl-phenylamino)-8-methoxy-6-nitro-quinoline-3-carbonitrile] here?
Its IC50 is greater than 100 µM.

`COc1cc([N+](=O)[O-])cc2c(Nc3ccc(Cl)cc3F)c(C#N)cnc12` [Example 342, 4-(4-chloro-2-fluoro-phenylamino)-8-methoxy-6-nitro-quinoline-3-carbonitrile] was tested. Which IC50 did it give?
The IC50 was greater than 100 µM.

For `COc1ccc(Nc2c(C#N)cnc3c(OC)cc([N+](=O)[O-])cc23)cc1O` [Example 343, 4-(3-hydroxy-4-methoxy-phenylamino)-8-methoxy-6-nitro-quinoline-3-carbonitrile], which IC50 is on record?
Its IC50 is 60 µM.

With `COc1cc(N)cc2c(Nc3ccc(C)c(O)c3)c(C#N)cnc12` [Example 344, 6-Amino-4-(3-hydroxy-4-methyl-phenylamino)-8-methoxy-quinoline-3-carbonitrile] as the molecule, how does the IC50 read?
The IC50 was greater than 100 µM.

For `COc1ccc(Nc2c(C#N)cnc3c(OC)cc(N)cc23)cc1O` [Example 345, 6-Amino-4-(3-hydroxy-4-methoxy-phenylamino)-8-methoxy-quinoline-3-carbonitrile], which IC50 is on record?
The IC50 was greater than 100 µM.

Which IC50 does the source give for `CC#CC(=O)Nc1ccc2ncc(C#N)c(Nc3cccc(I)c3)c2c1` [Example 348, N-{3-Cyano-4-[(3-iodophenyl)amino]-6-quinolinyl}-2-butynamide] here?
The IC50 was > 100 µM and 80 µM.

`C=CC(=O)Nc1ccc2ncc(C#N)c(Nc3cccc(C)c3)c2c1` [Example 349, N-{3-Cyano-4-[(3-methylphenyl)amino]-6-quinolinyl]-2-propenamide] was tested. Which IC50 did it give?
Its IC50 is greater than 100 µM.

Which IC50 does the source give for `C=CC(=O)Nc1ccc2ncc(C#N)c(Nc3ccc(Sc4ccccc4)c(Cl)c3)c2c1` [Example 351, N-{4-[(3-Chloro-4-thiophenoxyphenyl)amino]-3-cyano-6-quinoliny}-2-propenamide] here?
Its IC50 is 32 µM.

For `CC#CC(=O)Nc1ccc2ncc(C#N)c(Nc3cccc(Cl)c3)c2c1` [Example 353, N-{4-[(3-Chlorophenyl)amino]-3-cyano-6-quinolinyl}-2-butynamide], which IC50 is on record?
The IC50 was 40 µM.

For `CC#CC(=O)Nc1ccc2ncc(C#N)c(Nc3cccc(C(C)C)c3)c2c1` [Example 354, N-{3-Cyano-4-[(3-isopropylphenyl)amino]-6-quinolinyl}-2-butynamide], which IC50 is on record?
The IC50 was greater than 100 µM.

`C=CC(=O)Nc1ccc2ncc(C#N)c(Nc3cccc(C(C)C)c3)c2c1` [Example 355, N-{3-Cyano-4-[(3-isopropylphenyl)amino]-6-quinolinyl}-2-propenamide] was tested. Which IC50 did it give?
Its IC50 is 45 µM.

For `CC(C)c1cccc(Nc2c(C#N)cnc3ccc(N)cc23)c1` [Example 356, 6-Amino-4-[(3-isopropylphenyl)amino]-3-quinolinecarbonitrile], which IC50 is on record?
The IC50 was greater than 100 µM.

For `CC(C)c1cccc(Nc2c(C#N)cnc3ccc([N+](=O)[O-])cc23)c1` [Example 357, 4-[(3-Isopropylphenyl)amino]-6-nitro-3-quinolinecarbonitrile], which IC50 is on record?
Its IC50 is greater than 100 µM.

With `COc1cc2ncc(C#N)c(Nc3cccc(N=[N+]=[N-])c3)c2cc1OC` [Example 359, 4-(3-Azido-phenylamino)-6,7-dimethoxy-quinoline-3-carbonitrile] as the molecule, how does the IC50 read?
Its IC50 is greater than 100 µM.

With `N#Cc1cnc2ccc([N+](=O)[O-])cc2c1Nc1ccc(Cl)c(Cl)c1` [Example 362, 4-[(3.4-dichlorophenyl)amino]-6-nitro-3-quinolinecarbonitrile] as the molecule, how does the IC50 read?
The IC50 was greater than 100 µM.

Which IC50 does the source give for `CSc1cccc(Nc2c(C#N)cnc3ccc([N+](=O)[O-])cc23)c1` [Example 364, 4-[(3-Methylsulfanylphenyl)amino]-6-nitro-3-quinolinecarbonitrile] here?
The IC50 was greater than 100 µM.

Which IC50 does the source give for `N#Cc1cnc2ccc([N+](=O)[O-])cc2c1Nc1cccc(OC(F)(F)F)c1` [Example 365, 4-[(3-Trifluoromethoxyphenyl)amino]-6-nitro-3-quinolinecarbonitrile] here?
The IC50 was greater than 100 µM.

How did the IC50 turn out when `COc1cc2ncc(C#N)c(Nc3cccc(N(C)C)c3)c2cc1OC` [Example 366, 4-(3-Dimethylamino-phenylamino)-6,7-dimethoxy-quinoline-3-carbonitrile] was run?
The IC50 was 4 µM.

Reference: patent publication EP0973746B1, “SUBSTITUTED 3-CYANO QUINOLINES” (Wyeth Holdings Corporation, priority 1997, dated 1998)
